Among the data in publication PMC3206016, “Putting into Practice Domain-Linear Motif Interaction Predictions for Exploration of Protein Networks” (PLoS ONE, 2011) are Kd values, retold here.

Several values for one entry are separate records, joined by “and”; a condition that tells them apart may be missing. Equal values may be shown once. Read-outs that look alike come from different tables or passages of the source. Peptide text beside a SMILES is read from it. * marks the point of attachment. Biotin = O=C1N[C@H]2[C@H](CS[C@H]2CCCCC(=O)*)N1

Common to all, as to assay: SPR binding of MBP-PDZ analyte to immobilised biotinylated peptides
The target in one assay is T1, SCRIB-3/4 PDZ domain (Homo sapiens, UniProt Q14160).
T1 construct: cDNA bearing residues 997–1093, 1097–1193 and 997–1193 of human SCRIB (Uniprot acc.: Q14160-1); made in house; host or cells: E. coli BL21 DE3
T1 sequence (Q14160 997-1093 isoform Q14160-1): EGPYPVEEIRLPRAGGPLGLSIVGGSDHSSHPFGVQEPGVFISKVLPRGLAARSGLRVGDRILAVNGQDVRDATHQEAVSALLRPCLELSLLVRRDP
The note with it: tentative KD, SPR Biacore 2000, 25 C, steady state, 1:1 binding isotherm, MBP-PDZ 0-30 µM; to be considered with caution. As to the method: (§1) We opted for the surface plasmon resonance (SPR) method to measure these 190 (19 proteins×2 peptide versions×5 PDZ constructs) interactions. In SPR various concentrations of “analytes” (here, PDZ domains fused to the Maltose Binding Protein (MBP)) flow over surfaces presenting attached “ligands” (here, biotinylated peptides). The amount of analyte interacting with the ligand is measured and quantified in response units (RU). The intensity of this signal is proportional to the binding strength of the assayed interaction (Figure 5A). K [drawing 13] were obtained using a 1∶1 interaction model. However, these calculated K [drawing 14] were rather inaccurate especially for weak interactions. Therefore, we preferred to rank the binding strengths of the 190 interactions using normalised RU signals at equilibrium ( [drawing 15] ) rather than K [drawing 16] (see Methods for details). These normalised [drawing 17] values were plotted in form of a heat map (Figure 5B).
(§2) The cDNA encoding residues 448–572 and 613–752 of mouse MAGI-1 (UniProt acc.: Q6RHR9-1) encoding for MAGI1-2/6 (100% identical to human MAGI1-2/6) and MAGI1-3/6 (99% identical to human MAGI1-3/6) PDZ domains, respectively, were inserted into the NcoI/KpnI sites of the pETM-41 expression vector (EMBL) containing a 6×His-MBP tag followed by a TEV protease cleavage site. A similar cloning strategy was adopted for cDNA bearing residues 997–1093, 1097–1193 and 997–1193 of human SCRIB (Uniprot acc.: Q14160-1) encoding for SCRIB-3/4, SCRIB-4/4 PDZ domains and SCRIB-34/4 tandem PDZ construct, respectively.
(§3) Data were collected on a Biacore 2000 instrument (Biacore AB/GE Healthcare Bio-Sciences Corp., Piscataway, NJ, USA) at 25 [drawing 74] C. SPR experiments (ligand immobilisation and binding measurements) have been performed as described in Fournane et al.. Briefly, biotinylated peptides (instead of GST-fused recombinant peptides) were immobilised on CM5 sensorchips on which Neutravidin was previously attached. The MBP-PDZ domain analyte was injected at 8 to 10 different concentrations ranging from 0 up to 30 [drawing 75] M. Data were processed using the BiaEvaluation 3.2 software (Biacore AB/GE Healthcare Bio-Sciences Corp.) using “double referencing” [78] in which sensorgrams were corrected for buffer effects and bulk refractive index changes.
(§4) The steady-state binding signal ( [drawing 76] ) was derived by averaging the signals in a five second window at equilibrium. Steady-state analysis was performed by fitting the average signal [drawing 77] as a function of total MBP-PDZ concentrations, assuming a simple 1∶1 interaction binding isotherm model. […] Reasons for this inaccuracy are likely to be the following: 1. As previously described, several repetitions of all the measurements are required to determine accurate K [drawing 81] . In our case, such repetitions were not achievable in reasonable time due to the large amount of interactions measured in this study. 2. The highest injected analyte concentration restricts the maximal K [drawing 82] (weakest interaction) that can be accurately obtained. 3. A K [drawing 83] is estimated based on a mathematical extrapolation of observed [drawing 84] signals leading to additional uncertainty. Based on these reasons, we considered the calculated K [drawing 85] not as accurate enough to be used for absolute binding strength comparison in this study. We rather performed a relative analysis of binding strengths using directly [drawing 86] signals which are not biased by any mathematical assumption. We focussed on [drawing 87] signals obtained at 10 [drawing 88] M MBP-PDZ concentration, which have been systematically measured in duplicate. The [drawing 89] signal is directly proportional to the molecular weight of the analyte and the amount of immobilised ligand. Therefore, the [drawing 90] signals were normalised taking those into account before being used for binding strength comparison. […]

For assay [1], the target named is T2, SCRIB-34/4 tandem PDZ construct (Homo sapiens, UniProt Q14160).
T2 construct: residues 997–1093, 1097–1193 and 997–1193 of human SCRIB (Uniprot acc.: Q14160-1); made in house; host or cells: E. coli BL21 DE3
T2 sequence (Q14160 997-1193 isoform Q14160-1): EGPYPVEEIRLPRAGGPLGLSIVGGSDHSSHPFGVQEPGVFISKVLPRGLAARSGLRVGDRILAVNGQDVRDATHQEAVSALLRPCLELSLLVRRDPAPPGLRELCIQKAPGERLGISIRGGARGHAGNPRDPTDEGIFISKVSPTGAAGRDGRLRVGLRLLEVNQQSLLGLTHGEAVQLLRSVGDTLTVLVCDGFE
Particulars: SPR Biacore 2000, 25 C, steady state, 1:1 binding isotherm, MBP-PDZ 0-30 µM, to be considered with caution. How it is done: as §1, §2, §3, §4

The target in the next assay is T3, MAGI1-2/6 PDZ domain (Mus musculus, UniProt Q6RHR9).
T3 construct: The cDNA encoding residues 448–572 and 613–752 of mouse MAGI-1 (UniProt acc.: Q6RHR9-1) encoding for MAGI1-2/6; made in house; host or cells: E. coli BL21 DE3
T3 sequence (Q6RHR9 448-572): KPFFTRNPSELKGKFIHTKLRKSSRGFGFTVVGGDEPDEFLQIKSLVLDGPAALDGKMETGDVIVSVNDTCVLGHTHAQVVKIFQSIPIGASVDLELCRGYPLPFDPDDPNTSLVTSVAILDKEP
As to the method:
as §1, §2, §3, §4

The target in a further assay is T4, SCRIB-4/4 PDZ domain (Homo sapiens, UniProt Q14160).
T4 construct: residues 997–1093, 1097–1193 and 997–1193 of human SCRIB (Uniprot acc.: Q14160-1); made in house; host or cells: E. coli BL21 DE3
T4 sequence (Q14160 1097-1193 isoform Q14160-1): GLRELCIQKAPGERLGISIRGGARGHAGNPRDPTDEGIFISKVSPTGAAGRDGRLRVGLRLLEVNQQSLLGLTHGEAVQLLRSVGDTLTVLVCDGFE
Particulars: SPR Biacore 2000, 25 C, steady state, 1:1 binding isotherm, MBP-PDZ 0-30 µM; to be considered with caution; read-out: tentative KD. As to the method: as §1, §2, §3, §4

The target of a further assay is T5, MAGI1-3/6 PDZ domain (Mus musculus, UniProt Q6RHR9).
T5 construct: The cDNA encoding residues 448–572 and 613–752 of mouse MAGI-1 (UniProt acc.: Q6RHR9-1); made in house; host or cells: E. coli BL21 DE3
T5 sequence (Q6RHR9 613-752): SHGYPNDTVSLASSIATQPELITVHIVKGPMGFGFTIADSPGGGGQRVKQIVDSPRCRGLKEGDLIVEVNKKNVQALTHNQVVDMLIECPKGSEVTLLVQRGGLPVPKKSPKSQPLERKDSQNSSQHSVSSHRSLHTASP
Particulars: SPR Biacore 2000, 25 C, steady state, 1:1 binding isotherm, MBP-PDZ 0-30 µM; to be considered with caution; read-out: tentative KD. How it is done: as §1, §2, §3, §4

For the compound `CC(C)C[C@H](NC(=O)[C@H](CCC(N)=O)NC(=O)[C@@H](NC(=O)[C@H](CCC(=O)O)NC(=O)[C@H](CCCNC(=N)N)NC(=O)[C@H](CCCNC(=N)N)NC(=O)[C@@H](NC(=O)[C@H](CCCNC(=N)N)NC(=O)[C@H](CO)NC(=O)[C@@H](N)CO)[C@@H](C)O)[C@@H](C)O)C(=O)O` [16E6], the Kd at SCRIB-3/4 PDZ domain was 18 µM and 15 µM; in assay [1] (tentative KD), 3 µM; on MAGI1-2/6 PDZ domain (this study (Kd), Table S3, column this study, SPR), 3 µM.

Turning to `CC(C)C[C@H](NC(=O)[C@H](CCC(N)=O)NC(=O)[C@@H](NC(=O)[C@H](CCC(=O)O)NC(=O)[C@H](CCCNC(=N)N)NC(=O)CNC(=O)[C@H](C)NC(=O)CNC(=O)[C@H](CO)NC(=O)CNC(=O)CCCC[C@@H]1SC[C@@H]2NC(=O)N[C@@H]21)[C@@H](C)O)C(=O)O` [16E6_05] (Biotin-GSGAGRETQL-OH), the Kd on SCRIB-3/4 PDZ domain amounted to 12 µM; in assay [1] (tentative KD), 1 µM; on MAGI1-2/6 PDZ domain (tentative KD, SPR Biacore 2000, 25 C, steady state, 1:1 binding isotherm, MBP-PDZ 0-30 µM, to be considered with caution) it was 7 µM.

As to `CC(C)[C@H](NC(=O)[C@H](Cc1ccc(O)cc1)NC(=O)[C@H](CO)NC(=O)[C@H](CCC(=O)O)NC(=O)[C@H](CCCCN)NC(=O)CNC(=O)[C@H](C)NC(=O)CNC(=O)[C@H](CO)NC(=O)CNC(=O)CCCC[C@@H]1SC[C@@H]2NC(=O)N[C@@H]21)C(=O)O` [ABC1_05] (Biotin-GSGAGKESYV-OH), the Kd in assay [1] (read-out: tentative KD) worked out at 10 µM.

For `CC(C)C[C@H](NC(=O)[C@@H](NC(=O)[C@H](CCC(=O)O)NC(=O)[C@@H]1CCCN1C(=O)CNC(=O)[C@H](C)NC(=O)CNC(=O)[C@H](CO)NC(=O)CNC(=O)CCCC[C@@H]1SC[C@@H]2NC(=O)N[C@@H]21)[C@@H](C)O)C(=O)N[C@H](C(=O)O)C(C)C` [ARHGAP6_05] (Biotin-GSGAGPETLV-OH), on SCRIB-4/4 PDZ domain, the dissociation constant (Kd) is 104 µM.

Turning to `CC(C)[C@H](NC(=O)[C@H](CCCNC(=N)N)NC(=O)[C@@H](NC(=O)[C@H](CCC(=O)O)NC(=O)[C@H](CCCCN)NC(=O)CNC(=O)[C@H](C)NC(=O)CNC(=O)[C@H](CO)NC(=O)CNC(=O)CCCC[C@@H]1SC[C@@H]2NC(=O)N[C@@H]21)[C@@H](C)O)C(=O)O` [CYSLTR2_05] (Biotin-GSGAGKETRV-OH), the Kd in assay [1] (read-out: tentative KD) amounted to 10 µM; on SCRIB-4/4 PDZ domain, 123 µM.

As to `CC[C@H](C)[C@H](NC(=O)CNC(=O)[C@H](C)NC(=O)CNC(=O)[C@H](CO)NC(=O)CNC(=O)CCCC[C@@H]1SC[C@@H]2NC(=O)N[C@@H]21)C(=O)N[C@@H](C)C(=O)N[C@H](C(=O)N[C@@H](CCC(=O)O)C(=O)N[C@H](C(=O)O)C(C)C)[C@@H](C)O` [DLL1_05] (Biotin-GSGAGIATEV-OH), at SCRIB-4/4 PDZ domain, the Kd turned out to be 893 µM.

As to `C[C@H](NC(=O)CNC(=O)[C@H](CO)NC(=O)CNC(=O)CCCC[C@@H]1SC[C@@H]2NC(=O)N[C@@H]21)C(=O)NCC(=O)N[C@@H](CCCCN)C(=O)N[C@@H](CCC(=O)O)C(=O)N[C@H](C(=O)N[C@@H](CO)C(=O)N[C@@H](Cc1ccccc1)C(=O)O)[C@@H](C)O` [GLUT7_05] (Biotin-GSGAGKETSF-OH), the Kd in assay [1] (read-out: tentative KD) amounted to 5 µM.

Turning to `CC(C)[C@H](NC(=O)[C@@H](NC(=O)[C@@H](NC(=O)[C@H](CCC(=O)O)NC(=O)[C@H](CCCCN)NC(=O)CNC(=O)[C@H](C)NC(=O)CNC(=O)[C@H](CO)NC(=O)CNC(=O)CCCC[C@@H]1SC[C@@H]2NC(=O)N[C@@H]21)[C@@H](C)O)C(C)C)C(=O)O` [MARCH3_05] (Biotin-GSGAGKETVV-OH), the Kd in assay [1] (read-out: tentative KD) stood at 7 µM.

With `CC(C)[C@H](NC(=O)[C@@H](NC(=O)[C@@H](NC(=O)[C@H](CCC(=O)O)NC(=O)[C@@H](NC(=O)CNC(=O)[C@H](C)NC(=O)CNC(=O)[C@H](CO)NC(=O)CNC(=O)CCCC[C@@H]1SC[C@@H]2NC(=O)N[C@@H]21)C(C)C)[C@@H](C)O)C(C)C)C(=O)O` [MAS_05] (Biotin-GSGAGVETVV-OH), the Kd is 16 µM in assay [1] (read-out: tentative KD) and 433 µM on SCRIB-4/4 PDZ domain.

`CC(C)C[C@H](NC(=O)[C@@H](NC(=O)[C@H](CCC(=O)O)NC(=O)[C@H](CCCCN)NC(=O)CNC(=O)[C@H](C)NC(=O)CNC(=O)[C@H](CO)NC(=O)CNC(=O)CCCC[C@@H]1SC[C@@H]2NC(=O)N[C@@H]21)[C@@H](C)O)C(=O)N[C@H](C(=O)O)C(C)C` [NET1_05] (Biotin-GSGAGKETLV-OH): the dissociation constant Kd at MAGI1-3/6 PDZ domain stood at 23 µM; in assay [1] (read-out: tentative KD), 15 µM.

For the compound `CC[C@H](C)[C@H](NC(=O)CNC(=O)[C@H](C)NC(=O)CNC(=O)[C@H](CO)NC(=O)CNC(=O)CCCC[C@@H]1SC[C@@H]2NC(=O)N[C@@H]21)C(=O)N[C@@H](CCC(=O)O)C(=O)N[C@@H](CO)C(=O)N[C@@H](CC(N)=O)C(=O)N[C@H](C(=O)O)C(C)C` [TANC1_05] (Biotin-GSGAGIESNV-OH), the Kd in assay [1] (read-out: tentative KD) came to 9 µM.

With `CC[C@H](C)[C@H](NC(=O)[C@@H](NC(=O)[C@H](CCC(=O)O)NC(=O)[C@H](Cc1c[nH]cn1)NC(=O)CNC(=O)[C@H](C)NC(=O)CNC(=O)[C@H](CO)NC(=O)CNC(=O)CCCC[C@@H]1SC[C@@H]2NC(=O)N[C@@H]21)[C@@H](C)O)C(=O)N[C@H](C(=O)O)C(C)C` [TMEM215_05] (Biotin-GSGAGHETIV-OH), in assay [1] (read-out: tentative KD), the Kd turned out to be 15 µM.
